Test results taken from US20240167037A1, “CANCER THERAPY” (NATIONAL UNIVERSITY CORPORATION KOBE UNIVERSITY, priority 2021, published 2024).

Assays:
Type in all cases: cell-based, human
MDA-MB-231 cells [1] = experiment: In vitro invasion assay (BioCoat Matrigel Invasion Chambers); settings: MβCD 4 mM, calyculin A 0.5 nM; drugs added in both sides; 24 h; FIG. 10b
Procedure: In vitro invasion and migration assays. For invasion and migration assays, we used BioCoat Matrigel Invasion Chambers (Corning) and 8.0 μm PET trans-migration inserts (Corning), respectively. In the invasion assay, 1×10^5 cells were suspended in serum-free medium and seeded on top of the chamber's membrane, in which medium containing serum was placed at the bottom. For MβCD or calyculin A treatment, drugs were added in both sides. Low-invasive epithelial (MCF10A, AU565, and MCF7) cells and MDA-MB-231 cells were incubated for 36 h and 24 h, respectively, and then fixed in 4% formaldehyde. Invaded cells were imaged using a BZ-X700 microscope (Keyence) with 10× magnification and counted. In the migration assay, 5×10^4 cells were seeded on top of the PET membrane, incubated for 24 h, and analyzed as described for the invasion assay. For the quantification of invasive structures grown in 3D on-top culture (FIGS. 5a and b), the elongated mesenchymal-like and rounded morphologies were defined as invasive and non-invasive phenotypes, respectively, and quantified.

MDA-MB-231 cells [2] = experiment: Tether force measurement with optical tweezers and estimation of PM tension; settings: MβCD 4 mM vs mock (FIG. 10c), MA-ezrin expression vs parental (FIG. 4a)
Procedure: Tether force measurement with optical tweezers and the estimation of PM tension. Tether force measurements were performed with an optical tweezers system (NanoTracker™ 2, JPK Instruments) equipped with an infrared (IR) laser source (3 W, 1064 nm) on an Olympus IX-73 inverted microscope with a 60×(numerical aperture=1.2) water immersion objective (Olympus). Silica beads (1.5 μm diameter, Polysciences) were incubated with concanavalin A (Sigma-Aldrich) at 1 mg/ml for 1 h. Cells were plated onto glass-bottom dishes (WPI). Coated beads were added to the cell culture medium supplemented with 25 mM HEPES (pH 7.5), and experiments were performed at 37° C. Tether force (F) can be calculated using Hooke's law: F=kΔx, where k is the stiffness of the trap and Δx is the displacement of the bead from the trap center. […] The displacement of the bead in the trap center (Δx) was determined by a quadrant photodiode detector with high precision (the resolution less than 1 nm). […] To compare PM tension between non-motile epithelial cells and malignant cells, we measured the tethering force on the lateral sides of cells. […]
PM tension can be estimated with the following formula: T=Ftether^2/8Bπ^2, where T is the apparent plasma membrane tension (PM tension), Ftether is the tether force measured by optical tweezers, and B is the bending stiffness of the membrane. […]

[3] = tested on: GFP-FBP17 in MDA-MB-231 cells; experiment: Confocal quantification of GFP-FBP17 puncta at the plasma membrane; settings: FIG. 5g, 11c, 11e
Procedure: Confocal microscopy, live-cell imaging, and image analysis. For immunofluorescence analysis, cells were fixed with 4% formaldehyde in phosphate-buffered saline (PBS) for 10 min and permeabilized with 0.2% Triton X-100 for 10 min in PBS. Cells were blocked with 5% goat serum (Sigma-Aldrich) in PBS for 1 h and were incubated with primary antibodies for at least 3 h. Then, cells were incubated with secondary antibodies for 1 h. For membrane visualization, Alexa Fluor™ 350 conjugated wheat germ agglutinin (WGA) (Thermo Scientific) was incubated with fixed cells for 30 min before permeabilization. For visualization of F-actin, Alexa Fluor™ 568 Phalloidin (Thermo Scientific) was incubated with fixed cells for 30 min. Fluorescence images were captured using a confocal microscopy system (FluoView 1000-D; Olympus) equipped with 405-, 473-, and 568-nm diode lasers through an objective lens (60× oil immersion objective, NA=1.35). […] The aspect ratio was determined as a ratio of the major cell axis length to minor cell axis length, which was calculated automatically by Image J. We observed that elongated cells typically have an aspect ratio of 5-8, whereas that of amoeboid cells is 2-3. […] The mean intensity of pERM or F-actin all along the membrane regions was then calculated and divided by their mean intensities throughout the cytosol (avoiding the nucleus). […]

## COC[C@@H]([C@H](O)[C@H](O)C(=O)NCC[C@H](C)c1nc(/C=C/C[C@@H]2O[C@]3(C[C@@H](O)[C@@H]2C)O[C@H]([C@H](C[C@H](O)[C@H](C)[C@H](O)[C@H](C)/C=C(C)/C(C)=C/C=C/C(C)=C\C#N)OC)[C@H](OP(=O)(O)O)C3(C)C)co1)N(C)C [calyculin A]
MDA-MB-231 cells [1]
  invasive ability (drug-treated cells that invaded through Matrigel): no effect

## methyl-β-cyclodextrin [MβCD]
MDA-MB-231 cells [2]
  PM tension (estimated from tether force): increases
MDA-MB-231 cells [1]
  invasive ability (drug-treated cells that invaded through Matrigel): significantly reduced
[3]
  recruitment / accumulation of GFP-FBP17 at the PM: sufficient to prevent
